Results from patent publication US20090012103A1, “SUBSTITUTED HETEROCYCLIC COMPOUNDS” (priority 2007, published 2009).

Target: wild-type human cardiac sodium channel, hNav1.5 (Homo sapiens, UniProt Q14524)
Assay: Late INa screening assay (late sodium current, PatchXpress whole cell patch clamp)
Type: cell-based
Conditions: compound at 10 μM; read-out: Late INa % blk

Sequence of wild-type human cardiac sodium channel, hNav1.5 (Q14524 whole entry): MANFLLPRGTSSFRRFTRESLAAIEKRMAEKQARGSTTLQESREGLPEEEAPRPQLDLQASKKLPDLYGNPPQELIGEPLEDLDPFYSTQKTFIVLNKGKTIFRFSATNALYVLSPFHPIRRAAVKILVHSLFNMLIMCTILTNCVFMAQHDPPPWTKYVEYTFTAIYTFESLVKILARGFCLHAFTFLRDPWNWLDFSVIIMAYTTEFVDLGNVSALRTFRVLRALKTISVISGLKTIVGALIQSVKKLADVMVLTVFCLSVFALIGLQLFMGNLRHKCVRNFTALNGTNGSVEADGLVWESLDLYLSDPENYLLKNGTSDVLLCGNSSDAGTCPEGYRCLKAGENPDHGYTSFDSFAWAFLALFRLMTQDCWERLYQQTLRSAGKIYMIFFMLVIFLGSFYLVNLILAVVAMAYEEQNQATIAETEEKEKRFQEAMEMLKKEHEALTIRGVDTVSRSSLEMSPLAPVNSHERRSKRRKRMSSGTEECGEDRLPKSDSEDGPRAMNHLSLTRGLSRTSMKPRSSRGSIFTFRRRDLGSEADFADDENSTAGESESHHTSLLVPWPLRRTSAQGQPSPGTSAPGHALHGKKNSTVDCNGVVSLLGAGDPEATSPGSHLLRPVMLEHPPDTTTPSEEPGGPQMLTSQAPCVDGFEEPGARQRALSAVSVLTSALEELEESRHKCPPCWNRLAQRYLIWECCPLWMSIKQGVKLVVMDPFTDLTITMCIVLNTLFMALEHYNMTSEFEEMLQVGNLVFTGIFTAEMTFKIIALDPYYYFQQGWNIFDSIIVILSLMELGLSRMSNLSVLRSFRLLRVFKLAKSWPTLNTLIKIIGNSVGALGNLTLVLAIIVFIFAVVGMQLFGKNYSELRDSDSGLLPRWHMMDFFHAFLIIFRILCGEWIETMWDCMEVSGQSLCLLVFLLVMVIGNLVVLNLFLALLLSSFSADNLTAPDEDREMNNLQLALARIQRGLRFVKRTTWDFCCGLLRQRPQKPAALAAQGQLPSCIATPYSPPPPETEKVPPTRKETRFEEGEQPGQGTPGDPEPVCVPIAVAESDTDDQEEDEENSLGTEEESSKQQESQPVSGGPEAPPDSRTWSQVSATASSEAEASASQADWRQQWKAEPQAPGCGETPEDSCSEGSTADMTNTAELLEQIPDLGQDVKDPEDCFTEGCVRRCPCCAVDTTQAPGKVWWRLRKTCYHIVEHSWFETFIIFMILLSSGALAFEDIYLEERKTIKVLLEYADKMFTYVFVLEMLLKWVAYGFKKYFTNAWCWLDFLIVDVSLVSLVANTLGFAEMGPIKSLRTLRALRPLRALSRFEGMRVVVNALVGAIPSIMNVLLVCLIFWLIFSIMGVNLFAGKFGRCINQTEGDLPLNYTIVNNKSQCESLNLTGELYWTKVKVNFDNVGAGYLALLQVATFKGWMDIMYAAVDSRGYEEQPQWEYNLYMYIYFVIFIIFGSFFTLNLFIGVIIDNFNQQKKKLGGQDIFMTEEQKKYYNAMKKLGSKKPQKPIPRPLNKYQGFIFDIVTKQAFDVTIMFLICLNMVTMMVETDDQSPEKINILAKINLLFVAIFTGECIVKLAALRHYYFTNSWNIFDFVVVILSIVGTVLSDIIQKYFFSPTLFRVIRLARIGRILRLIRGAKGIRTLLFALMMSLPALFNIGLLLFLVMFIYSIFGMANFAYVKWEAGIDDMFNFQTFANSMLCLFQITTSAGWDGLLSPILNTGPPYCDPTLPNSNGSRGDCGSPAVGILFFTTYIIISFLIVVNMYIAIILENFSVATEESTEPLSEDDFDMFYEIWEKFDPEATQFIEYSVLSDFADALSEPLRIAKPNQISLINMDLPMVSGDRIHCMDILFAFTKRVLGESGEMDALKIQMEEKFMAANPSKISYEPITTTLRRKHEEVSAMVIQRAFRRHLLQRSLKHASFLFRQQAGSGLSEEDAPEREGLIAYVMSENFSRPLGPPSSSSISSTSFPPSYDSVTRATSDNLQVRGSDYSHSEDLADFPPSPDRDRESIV

SMILES	inhibition at 10 µM [%]
CC1=C(C(=O)OCc2ccc(Cn3cccn3)cc2)C(c2ccccc2OCc2ccccc2)n2nnnc2N1 (stereo not shown) [PT-282, 4-((1H-pyrazol-1-yl)methyl)benzyl 7-(2-(benzyloxy)phenyl)-5-methyl-4,7-dihydrotetrazolo[1,5-a]pyrimidine-6-carboxylate]	30.2
CC1=C(C(=O)OCc2ccccc2)C(c2ccccc2-c2ccccc2)C2=C(CCCC2=O)N1 (stereo not shown) [PT-336, benzyl 4-(biphenyl-2-yl)-2-methyl-5-oxo-1,4,5,6,7,8-hexahydroquinoline-3-carboxylate]	60.1
COCCOC(=O)C1=C(C)NC(C)=C(C(=O)OCCOC)C1c1sccc1Br [PT-125, bis(2-methoxyethyl) 4-(3-bromothiophen-2-yl)-2,6-dimethyl-1,4-dihydropyridine-3,5-dicarboxylate]	10.3
CCOC(=O)C1=C(CC)NC2=C(C(=O)CCC2)C1c1ccc(OC)c2ccccc12 (stereo not shown) [PT-136, ethyl 2-ethyl-4-(4-methoxynaphthalen-1-yl)-5-oxo-1,4,5,6,7,8-hexahydroquinoline-3-carboxylate]	45.2
COc1cccc(OCc2ccccc2)c1C1C(C(=O)OCc2ccccc2)=C(C)Nc2nnnn21 (stereo not shown) [PT-382, benzyl 7-(2-(benzyloxy)-6-methoxyphenyl)-5-methyl-4,7-dihydrotetrazolo[1,5-a]pyrimidine-6-carboxylate]	13.9
COc1ccc(-c2ccc(COC(=O)C3=C(C)Nc4nnnn4C3c3cccc4ccccc34)cc2)cc1 (stereo not shown) [PT-199, (4′-methoxybiphenyl-4-yl)methyl 5-methyl-7-(naphthalen-1-yl)-4,7-dihydrotetrazolo[1,5-a]pyrimidine-6-carboxylate]	20.3
COc1ccc(C2C(C(=O)OCc3ccccc3)=C(C)Nc3nnnn32)c(OC)c1 (stereo not shown) [PT-385, benzyl 7-(2,4-dimethoxyphenyl)-5-methyl-4,7-dihydrotetrazolo[1,5-a]pyrimidine-6-carboxylate]	56.5
CCOC(=O)C1=C(C)Nc2[nH]ncc2C1c1cccc(Oc2ccccc2)c1 (stereo not shown) [PT-470, ethyl 6-methyl-4-(3-phenoxyphenyl)-4,7-dihydro-1H-pyrazolo[3,4-b]pyridine-5-carboxylate]	26
CC1=C(C(=O)OCc2ccccc2)C(c2ccccc2-c2cccc(C)c2)n2nnnc2N1 (stereo not shown) [PT-350, benzyl 5-methyl-7-(3′-methylbiphenyl-2-yl)-4,7-dihydrotetrazolo[1,5-a]pyrimidine-6-carboxylate]	63.2
CCOC(=O)C1=C(C)NC2=C(C(=O)CCC2)C1c1cc2cc(OC)ccc2nc1Cl (stereo not shown) [PT-188, ethyl 2-chloro-6-methoxy-2′-methyl-5′-oxo-1′,4′,5′,6′,7′,8′-hexahydro-3,4′-biquinoline-3′-carboxylate]	-0.8
CC1=C(C(=O)NCc2ccccc2)C(c2cccc3ccccc23)n2nnnc2N1 (stereo not shown) [PT-067, N-benzyl-5-methyl-7-(naphthalen-1-yl)-4,7-dihydrotetrazolo[1,5-a]pyrimidine-6-carboxamide]	24.4
CC1=C(C(=O)OCc2ccccc2)C(c2ccccc2-c2ccc(S(C)(=O)=O)cc2)n2nnnc2N1 (stereo not shown) [PT-354, benzyl 5-methyl-7-(4′-(methylsulfonyl)biphenyl-2-yl)-4,7-dihydrotetrazolo[1,5-a]pyrimidine-6-carboxylate]	64.7
CCOC(=O)C1=C(C)Nc2nnnn2C1c1ccccc1Oc1ccc(C(=O)O)cc1 (stereo not shown) [PT-291, 4-(2-(6-(ethoxycarbonyl)-5-methyl-4,7-dihydrotetrazolo[1,5-a]pyrimidin-7-yl)phenoxy)benzoic acid]	15.2
CCOC(=O)C1=C(C(F)(F)F)Nc2nnnn2C1c1cccc2ccccc12 (stereo not shown) [PT-009, ethyl 7-(naphthalen-1-yl)-5-(trifluoromethyl)-4,7-dihydrotetrazolo[1,5-a]pyrimidine-6-carboxylate]	8.2
CCCC1=C(C(=O)OCC)C(c2ccsc2)C2=C(CCCC2=O)N1 (stereo not shown) [PT-148, ethyl 5-oxo-2-propyl-4-(thiophen-3-yl)-1,4,5,6,7,8-hexahydroquinoline-3-carboxylate]	7.6
CCOC(=O)C1=C(C)Nc2ccnn2C1c1ccc(N(C)C)c2ccccc12 (stereo not shown) [PT-502, ethyl 7-(4-(dimethylamino)naphthalen-1-yl)-5-methyl-4,7-dihydropyrazolo[1,5-a]pyrimidine-6-carboxylate]	27
CC1=C(C(=O)OCc2ccccc2)[C@@H](c2ccccc2-c2ccc(C(F)(F)F)cc2)n2nnnc2N1 [PT-236, (R)-benzyl 5-methyl-7-(4′-(trifluoromethyl)biphenyl-2-yl)-4,7-dihydrotetrazolo[1,5-a]pyrimidine-6-carboxylate]	68
COC(=O)c1ccc(-c2ccc(COC(=O)C3=C(C)Nc4nnnn4C3c3cccc4ccccc34)cc2)cc1 (stereo not shown) [PT-200, (4′-(methoxycarbonyl)biphenyl-4-yl)methyl 5-methyl-7-(naphthalen-1-yl)-4,7-dihydrotetrazolo[1,5-a]pyrimidine-6-carboxylate]	7.4
CC1=C(C(=O)OCc2ccccc2)C(c2cccc3ccccc23)n2ncc(-c3ccccc3)c2N1 (stereo not shown) [PT-362, benzyl 5-methyl-7-(naphthalen-1-yl)-3-phenyl-4,7-dihydropyrazolo[1,5-a]pyrimidine-6-carboxylate]	14.4

SMILES	inhibition at 10 µM [%]
CC1=C(C(=O)N2CCC(c3ccccc3)CC2)C(c2cccc3ccccc23)C2=C(CCCC2=O)N1 (stereo not shown) [PT-170, 2-methyl-4-(naphthalen-1-yl)-3-(4-phenylpiperidine-1-carbonyl)-4,6,7,8-tetrahydroquinolin-5(1H)-one]	9.8
CC1=C(C(=O)OCc2ccccc2)C(c2ccccc2OCc2ccccc2)n2nnnc2N1 (stereo not shown) [PT-383, benzyl 7-(2-(benzyloxy)phenyl)-5-methyl-4,7-dihydrotetrazolo[1,5-a]pyrimidine-6-carboxylate]	79.5
CC1=C(C(=O)OCc2cccs2)C(c2cccc3ccccc23)n2nnnc2N1 (stereo not shown) [PT-525, thiophen-2-ylmethyl 5-methyl-7-(naphthalen-1-yl)-4,7-dihydrotetrazolo[1,5-a]pyrimidine-6-carboxylate]	67.5
COC(=O)C1=C(C)Nc2nnnn2C1c1sc2ccccc2c1-c1cccc(C(=O)O)c1 (stereo not shown) [PT-273, 3-(2-(6-(methoxycarbonyl)-5-methyl-4,7-dihydrotetrazolo[1,5-a]pyrimidin-7-yl)benzo[b]thiophen-3-yl)benzoic acid]	14.1
COC(=O)C1=C(C)Nc2nnnn2C1c1c(-c2cccc(C(=O)O)c2)sc2ccccc12 (stereo not shown) [PT-275, 3-(3-(6-(methoxycarbonyl)-5-methyl-4,7-dihydrotetrazolo[1,5-a]pyrimidin-7-yl)benzo[b]thiophen-2-yl)benzoic acid]	9.4
CCOC(=O)C1=C(C)NC(C)=C(C(=O)OCC)C1c1ccc(-c2ccc(Cl)cc2)o1 [PT-118, diethyl 4-(5-(4-chlorophenyl)furan-2-yl)-2,6-dimethyl-1,4-dihydropyridine-3,5-dicarboxylate]	-3.8
CCOC(=O)C1=C(C)Nc2[nH]ncc2C1c1cccs1 (stereo not shown) [PT-473, ethyl 6-methyl-4-(thiophen-2-yl)-4,7-dihydro-1H-pyrazolo[3,4-b]pyridine-5-carboxylate]	9.4
CCOC(=O)C1=C(C)Nc2nnnn2C1c1c(Cl)cccc1Cl (stereo not shown) [PT-486, ethyl 7-(2,6-dichlorophenyl)-5-methyl-4,7-dihydrotetrazolo[1,5-a]pyrimidine-6-carboxylate]	30.8
CC1=C(C(=O)OC(C)C)C(c2ccc3ccccc3c2)n2nnnc2N1 (stereo not shown) [PT-020, isopropyl 5-methyl-7-(naphthalen-2-yl)-4,7-dihydrotetrazolo[1,5-a]pyrimidine-6-carboxylate]	47.7
CCOC(=O)C1=C(C)Nc2[nH]ncc2C1c1ccccc1-c1cccc(C(C)=O)c1 (stereo not shown) [PT-451, ethyl 4-(3′-acetylbiphenyl-2-yl)-6-methyl-4,7-dihydro-1H-pyrazolo[3,4-b]pyridine-5-carboxylate]	18.4
CC1=C(C(=O)OCc2ccccc2)C(c2ccc(C#N)cc2)n2nnnc2N1 (stereo not shown) [PT-418, benzyl 7-(4-cyanophenyl)-5-methyl-4,7-dihydrotetrazolo[1,5-a]pyrimidine-6-carboxylate]	42.7
CCOC(=O)C1=C(C)N(CC(=O)Nc2c(C)cccc2C)c2nnnn2C1c1ccccc1Br (stereo not shown) [PT-490, ethyl 7-(2-bromophenyl)-4-(2-(2,6-dimethylphenylamino)-2-oxoethyl)-5-methyl-4,7-dihydrotetrazolo[1,5-a]pyrimidine-6-carboxylate]	7.3
CC1=C(C(=O)OCc2ccccc2)C(c2ccc(C(=O)O)cc2)n2nnnc2N1 (stereo not shown) [PT-299, 4-(6-(benzyloxycarbonyl)-5-methyl-4,7-dihydrotetrazolo[1,5-a]pyrimidin-7-yl)benzoic acid]	6.7
COC(=O)C1=C(C)Nc2nnnn2C1c1cccs1 (stereo not shown) [PT-513, methyl 5-methyl-7-(thiophen-2-yl)-4,7-dihydrotetrazolo[1,5-a]pyrimidine-6-carboxylate]	10.5
CCOC(=O)C1=C(C)Nc2nnnn2C1c1ccccc1Oc1ccc(S(N)(=O)=O)cc1 (stereo not shown) [PT-458, ethyl 5-methyl-7-(2-(4-sulfamoylphenoxy)phenyl)-4,7-dihydrotetrazolo[1,5-a]pyrimidine-6-carboxylate]	19
CC1=C(C(=O)OCc2ccccc2)C(c2ccccc2)c2cn[nH]c2N1 (stereo not shown) [PT-372, benzyl 6-methyl-4-phenyl-4,7-dihydro-1H-pyrazolo[3,4-b]pyridine-5-carboxylate]	20.8
CC1=C(C(=O)OCc2ccccc2)C(c2cccc3ccccc23)c2c(-c3ccc(C)cc3)n[nH]c2N1 (stereo not shown) [PT-077, benzyl 6-methyl-4-(naphthalen-1-yl)-3-p-tolyl-4,7-dihydro-1H-pyrazolo[3,4-b]pyridine-5-carboxylate]	-2.6
O=C1OCc2nc3c(cnn3-c3ccccc3)c(-c3cccc4ccccc34)c21 [PT-302, 4-(naphthalen-1-yl)-1-phenyl-1H-furo[3,4-e]pyrazolo[3,4-b]pyridin-5(7H)-one]	50.4
